One may read the LD50 as the dose expected to kill half of the subjects tested.

Series [1] concerns Rabbit platelet aggregation induced by arachidonic acid. Briefly: Effects on rabbit platelet aggregation in vitro (PRP), arachidonic acid-induced. The class given is cell-based. The following applies: Oryctolagus cuniculus, 0.05 h, arachidonic acid 10^-4 M, 3 min. preincubation, read-out: IC100 (concentration which gave maximum (100%) inhibition against platelet aggregation). As for the experimental part:
(§1) The antiaggregant activity in vitro of the present compounds was studied in platelet rich plasma from rabbit and man.
(§2) Blood was taken from the femoral artery of rabbit with a syringe containing sodium citrate (3.8%, 1 vol. in 9 vol. of blood). The citrated blood was centrifuged at 800 rpm. The supernatants were stored at 10° C. until use as platelet rich plasma (PRP) in the subsequent experiment. Platelet aggregation was determined with aggregometer (D-P 247 E, SIENCO Ltd.). Stock solution of test compounds was made by suspending at a concentration of 10 mg/ml in 1% gum arabic solution. Further, dilution was made with 0.9% saline. PRP was preincubated for 3 min. with the test compounds, and then arachidonic acid as aggregant was added at final concentration of 10^-4 M.
(§3) IC100 -values are the concentrations which gave maximum (100%) inhibition against platelet aggregation caused by arachidonic acid.

The test system of series [2] is human platelet aggregation, collagen-induced. As to the kind of experiment: Effects on human platelet aggregation in vitro (PRP), collagen-induced. The class given is cell-based. The following applies: 0.05 h, collagen 6-8 μg/ml, read-out: concentration that completely inhibited platelet aggregation. As for the experimental part: as §1, §2, §3
(§4) Blood samples were taken from median cubital vein of 5 healthy volunteers (male, 30 to 42 age) with plastic syringe. The citrated blood (sodium citrate 1 vol. in 9 vol. of blood) was centrifuged at 1000 rpm. The supernatant (PRP) was stored at 10° C. and used within 5 hours. Arachidonic acid (4-8×10^-4 M) and collagen (6-8 μg/ml, SIGMA, Type III) were used as aggregants. Other procedures were the same as in Experiment 1.

The nature of series [3]: Gastro-intestinal lesions in rats (ulcerogenic activity). Also on record: species or system Male Wistar rats. The settings on record: rat, in vivo, po. As for the experimental part:
Male Wistar rats weighing 250 to 300 g were used in this experiment. Ulcer formation under the satiety condition was studied as follows: Rats not fasted prior to experiment were administered orally with test compounds. The animals were allowed free access to diet and water for 24 hours after the drug administration until sacrificed by exsanguination. The stomach and the intestine were removed and examined for lesions.
In the other study, rats had been deprived of food and water for 24 hours before drug administration. The animals were administered orally with the compound of Example 2 and aspirin and then they had free access to water but not to diet. Twenty-four hours later, the animals were killed by the exsanguination. The stomach and the intestine were removed and observed carefully to know whether or not lesions were present.
Units for the UD50values: mg/kg, p.o. UD50 means the dose that
cause the lesions in 50% of animals.

Series [4] concerns human platelet aggregation, arachidonic acid-induced. Briefly: Effects on human platelet aggregation in vitro (PRP), arachidonic acid-induced. Type of series: cell-based. The method, then:
as §1, §2, §3, §4

In series [5] the test system is arachidonic acid-induced aggregation of platelets from rabbit. Briefly: Ex vivo studies on platelet aggregation (PRP from rabbit administered orally), arachidonic acid-induced. Type of series: in vivo. The settings on record: oral, blood taken one hour after administration, FIG. 1. As for the experimental part:
To know the absorbability and potency of the compound of this invention, another platelet aggregation tests were done using the PRP from rabbit which had been administered orally with the drugs.
Rabbits were administered orally with the compound of Example 2 or aspirin. One hour after the drug administration, blood was taken from the femoral artery. The methods for preparing PRP and determining platelet aggregation were the same as Experiment 1.

Series [6] is described as follows: Effect on blood viscosity (whole blood and plasma viscosities, hematocrit). The class given is in vivo, Male Wistar rats. The settings on record: rat, 10 mg/kg p.o. twice a day for 2 days. As for the experimental part:
Male Wistar rats weighing 300-380 g were used in this experiment. Rats were administered orally 10 mg/kg twice a day of the compound of Example 2 for 2 days. One hour after the last treatment, rats were anaesthetized with pentobarbital 35 mg/kg ip, and then blood was taken from vena cava caudalis. EDTA was added at a final concentration of 2 mM.
Whole blood and plasma viscosities were measured with rotational viscometer (Contraves LS-30, shear rate 0-128.5 sec.^-1, 37° C.) and hematocrit was determined by microhematocrit centrifugation (13,000 g for 5 min.).

Series [7] in a line: Acute Toxicity (LD50), mice. The settings on record: mouse, in vivo.
Series [8] in a line: Acute Toxicity (LD50), rats. The following applies: rat, in vivo.
[9] abbreviates: iv, read-out: Acute Toxicity LD50, I.V.
Where [10] appears, read: po, read-out: Acute Toxicity LD50, P.O.

The structures appear in SMILES notation. Read-outs that look alike come from different tables or passages of the source.

Take `CC(=O)Oc1ccccc1C(=O)O` [Aspirin, reference compound]: the IC100 came out at 4 µg/mL in series [1] and 100 µg/mL in series [2]. The TD50 at 24 h in series [3] (deprived of food and water for 24 hours before, examined 24 hours after, read-out: UD50 (dose that cause the lesions in 50% of animals), Fasting) was 25 to 50 mg/kg; in series [3] (not fasted, 24 hours, read-out: UD50 (dose that cause the lesions in 50% of animals), Satiety), 230 mg/kg.
With `Cc1nn2ccccc2c1C(=O)c1cccnc1` [Example 1, 2-methyl-3-nicotinoylpyrazolo[1,5-a]pyridine], the IC100 in series [1] amounted to 6 µg/mL.
As for `Cc1nn2ccccc2c1C(=O)C1=CNCCC1` [Example 2, 2-methyl-3-(1,4,5,6-tetrahydronicotinoyl)pyrazolo[1,5-a]pyridine], in series [1], the IC100 amounted to 0.03 µg/mL. The “difference in the IC100-values between individuals” value in series [4] (arachidonic acid and collagen, considered to be due to individual difference) is on record as “About 300 folds”. Also, the “inhibitory activity against both arachidonic acid- and collagen-induced platelet aggregation” value in series [4] (comparison of the two aggregants) is “almost the same inhibitory activity”. Also, the “inhibitory activity on arachidonic acid-induced platelet aggregation relative to aspirin” value in series [5] was “several times as high as aspirin”. Besides, in series [6], the effect on hematocrit result was “no effects”; the “effect on plasma viscosity” value is recorded as “no effects”; the “reduction of whole blood viscosity, shear rate 0.1285 sec.^-1” value is reported as 50.1%; the “reduction of whole blood viscosity, shear rate 0.514 sec.^-1” value was 36.1%. In addition, in series [6], the “reduction of whole blood viscosity, shear rate 6.425 sec.^-1” value was 23.5%; the “reduction of whole blood viscosity, shear rate 25.7 sec.^-1” value was determined as 19.2%; the “reduction of whole blood viscosity, shear rate 128.5 sec.^-1” value worked out at 12.0%. Besides, in series [6] (37° C.), the “Plasma Viscosity” value was found to be 1.14 ± 0.01 mPS. Also, in series [6] (37° C., * p < 0.05 vs vehicle), the “Whole Blood Viscosity, shear rate 0.1285 sec.^-1” value is on record as 24.8 ± 2.71 mPS; the “Whole Blood Viscosity, shear rate 0.514 sec.^-1” value was 17.2 ± 1.31 mPS; the “Whole Blood Viscosity, shear rate 6.425 sec.^-1” value was 7.31 ± 0.36 mPS; the “Whole Blood Viscosity, shear rate 25.7 sec.^-1” value is 5.18 ± 0.12 mPS. In series [6] (37° C., * p < 0.05 vs vehicle), the “Whole Blood Viscosity, shear rate 128.5 sec.^-1” value stood at 3.68 ± 0.08 mPS. In series [6] (microhematocrit centrifugation), this molecule had a Hematocrit of 46.0 ± 0.71%. The TD50 at 24 h in series [3] (UD50 (dose that cause the lesions in 50% of animals), Fasting) lay in the range of 300 to 500 mg/kg. The TD50 at 24 h in series [3] (UD50 (dose that cause the lesions in 50% of animals), Satiety) was above 1000 mg/kg. In series [7] (setting [9]), the 50% lethal dose (LD50) was in the range of 125 to 150 mg/kg. The LD50 in series [7] (setting [10]) was above 1000 mg/kg. Moreover, the 50% lethal dose (LD50) in series [8] (setting [9]) was above 100 mg/kg. Besides, the LD50 in series [8] (setting [10]) is above 1000 mg/kg.
Consider `Cc1nn2c(c1C(=O)C1=CNCCC1)CCCC2` [Example 3, 2-methyl-3-(1,4,5,6-tetrahydronicotinoyl)-4,5,6,7-tetrahydropyrazole[1,5-a]pyridine], for which, in series [1], the IC100 is 0.2 µg/mL.
Same read-out and setting: the figure for `Cc1nn2ccccc2c1C(=O)C1=CN(C(=O)Nc2ccc(Cl)cc2)CCC1` [Example 4, 2-methyl-3-[1-(p-chlorophenylcarbamoyl)-1,4,5,6-tetrahydronicotinoyl]-pyrazolo[1,5-a]pyridine] is 1 µg/mL; for `CCOC(=O)C(C)N1C=C(C(=O)c2c(C)nn3ccccc23)CCC1` (centres unmarked) [Example 10, 3-[1-(1-ethoxycarbonylethyl)-1,4,5,6-tetrahydronicotinoyl]-2-methylpyrazolo-[1,5-a]pyridine] it is 0.3 µg/mL.
